Measurements reported in patent US9422321B2, “Pyrimidine nucleoside derivatives, synthesis methods and uses thereof for preparing anti-tumor and anti-virus medicaments” (High & New Technology Research Center, Henan Academy of …, priority 2010, dated 2016).

What was measured:
VSVG/HIV-luc (NL4-3) = test: microbe, parasite or virus in culture; type: cell-based, HIV-1; settings: Human immunodeficiency virus 1, NL43, HEK-293T; for inhibition at 10 µM: read-out: Inhibitory activity at 10 μM; for EC50: 48 h, read-out: EC50 (μM) VSVG/HIV-luc (NL4-3)
[1] = MTS test of effects of the compound on cell survival; type: cell-based; settings: human, 293T cells
Description: Then, 20 μL freshly prepared mixture of MTS/PMS was added to each well and after 4 h incubation in the incubator at 37° C. with 5% CO2, the color was developed. The light absorption (OD) of each well at wavelengths 490 nm and 650 nm (background) was detected on an enzyme linked immuno analyzer, and the survival rate of cells was calculated.

HBsAg = test: In vitro inhibition of HBV: HBsAg in HepG2.2.15 cells by ELISA; type: cell-based; settings: Hepatitis B virus, HepG2.2.15, read-out: IC50 (μM) (HBsAg)
Description: (§1) A tube of frozen HepG2.2.15 cells taken from a liquid nitrogen tank was quickly placed into a water bath at 42° C. and shaken to thaw. DMEM complete medium (fetal bovine serum 10%, G418 380 μg/mL, Penicillin 100 U/ml, Streptomycin 100 U/ml) was used for cell culturing at conditions of 37° C. and 5% CO2. The number of cell passage in normal growing cells was once per 2-3 days.
(§2) The effect of a compound on HBV surface antigen s and antigen e in the cell culture was detected using a screening concentration lower than the half toxic concentration of the compound. HepG2.2.15 cells in logarithmic growth phase were selected and digested with trypsin into single cell suspension, and were seeded to a 24-well plate at a concentration of 2×10^4/mL, 1 mL per well. Media of different medicament concentrations were added, three wells for each concentration, and cells added with complete medium were set as normal control. Cell supernatants and cells at day 3, day 6 and day 9 were collected and kept under −20° C. The intracellular and extracellular expressions of e antigen and surface antigen at day 3, day 6 and day 9 were determined by ELISA.
(§3) 2.4 Effect of the Compound on HBeAg and HBsAg in HepG2.2.15 Cell Supernatant Detected by ELISA
(§4) The instructions of the kit were followed;
(§5) Measurement: OD value of each well was read from microplate reader using dual wavelength 450/630 nm.
(§6) Result determination: The Cutoff value was first calculated according to equation: COV=average OD of negative control×2.1. Then, if a sample had OD≧COV, the result was determined as positive, or if a sample had OD≦COV, the result was determined as negative.

[2] = MTT test of cytotoxicity on HepG2.2.15 cells; type: cell-based; settings: human, read-out: CC50 (μM) (HepG2. 2. 15)
Description: as §1
Cytotoxicity of the compound on HepG2.2.15 cells was tested with the MTT colorimetric assay established by Mosmann. After continuous incubation for 72 h, 10 μL MTT was added to each well. Four hours later, the supernatant was discarded and 200 μL DMSO was added to each well. The OD value in each well was read using a microplate reader (measurement wavelength 490 nm, reference wavelength 630 nm). The result was recorded and the percentage inhibition of HepG2.2.15 cells by each compound was calculated:
The half toxic concentration (TC50) of the medicament on cells was calculated according to the percentage inhibition of the cell by the medicament.

HBeAg = test: In vitro inhibition of HBV: HBeAg in HepG2.2.15 cells by ELISA; type: cell-based; settings: Hepatitis B virus, HepG2.2.15, read-out: IC50 (μM) (HBeAg)
Description: as §1, §2, §3, §4, §5, §6

SMILES | inhibition at 10 µM (VSVG/HIV-luc (NL4-3)) | IC50 (HBsAg) | CC50 at 72 h [2] | further results
CCNc1ccn([C@@H]2O[C@@](CO)(N=[N+]=[N-])C(O)C2F)c(=O)n1 (stereo partly drawn) [Compound 5-01] | 21.6 ± 1.3% |  |  | 
[N-]=[N+]=N[C@]1(CO)O[C@@H](n2ccc(NCCc3ccc(O)cc3)nc2=O)C(F)C1O (stereo partly drawn) [Compound 5-03] |  | < 0.1 µM | 834 µM | EC50 (VSVG/HIV-luc (NL4-3)): 5.7 ± 0.2 µM; CC50 at 44 h [1]: ≥ 25 µM
CCN(CC)c1ccn([C@@H]2O[C@@](CO)(N=[N+]=[N-])C(O)C2F)c(=O)n1 (stereo partly drawn) [Compound 5-04] | 8.6 ± 7.5% |  |  | 
[N-]=[N+]=N[C@]1(CO)O[C@@H](n2ccc(N3CCCC3)nc2=O)C(F)C1O (stereo partly drawn) [Compound 5-05] | 31.6 ± 3.6% |  |  | 
CON(C)c1ccn([C@@H]2O[C@@](CO)(N=[N+]=[N-])C(O)C2F)c(=O)n1 (stereo partly drawn) [Compound 5-06] | 32.2 ± 10.5% |  |  | 
CONc1ccn([C@@H]2O[C@@](CO)(N=[N+]=[N-])C(O)C2F)c(=O)n1 (stereo partly drawn) [Compound 5-07] | 29.4 ± 5.1% | < 0.01 µM | 418 µM | IC50 (HBeAg): > 1 µM
CCONc1ccn([C@@H]2O[C@@](CO)(N=[N+]=[N-])C(O)C2F)c(=O)n1 (stereo partly drawn) [Compound 5-08] | 15.6 ± 1.3% | 0.12 µM | 572 µM | IC50 (HBeAg): > 1 µM
[N-]=[N+]=N[C@]1(CO)O[C@@H](n2ccc(NCc3ccco3)nc2=O)C(F)C1O (stereo partly drawn) [Compound 5-09] |  | 0.19 µM | ≥ 25 µM | EC50 (VSVG/HIV-luc (NL4-3)): 0.7 ± 0.1 µM; CC50 at 44 h [1]: ≥ 25 µM
[N-]=[N+]=N[C@]1(CO)O[C@@H](n2ccc(NC3CCCCC3)nc2=O)C(F)C1O (stereo partly drawn) [Compound 5-10] | 1.9 ± 2.2% | < 0.1 µM | 654 µM | 
[N-]=[N+]=N[C@]1(CO)O[C@@H](n2ccc(N3CCOCC3)nc2=O)C(F)C1O (stereo partly drawn) [Compound 5-12] | 3 ± 6.9% | < 0.1 µM | 700 µM | IC50 (HBeAg): > 1 µM
[N-]=[N+]=N[C@]1(CO)O[C@@H](n2ccc(NCCO)nc2=O)C(F)C1O (stereo partly drawn) [Compound 5-13] | 41.7 ± 1.8% |  |  | 
[N-]=[N+]=N[C@]1(CO)O[C@@H](n2ccc(NCCCO)nc2=O)C(F)C1O (stereo partly drawn) [Compound 5-14] | 6.3 ± 3.2% | 2.46 µM | 668 µM | 
[N-]=[N+]=N[C@]1(CO)O[C@@H](n2ccc(NCc3ccccc3)nc2=O)C(F)C1O (stereo partly drawn) [Compound 5-16] | 31.3 ± 4% |  |  | 
[N-]=[N+]=N[C@]1(CO)O[C@@H](n2ccc(NCC(O)CO)nc2=O)C(F)C1O (stereo partly drawn) [Compound 5-18] | 17.8 ± 0.6% |  |  | 
[N-]=[N+]=N[C@]1(CO)O[C@@H](n2ccc(NCCc3c[nH]c4ccccc34)nc2=O)C(F)C1O (stereo partly drawn) [Compound 5-20] |  |  | > 250 µM | EC50 (VSVG/HIV-luc (NL4-3)): 5.8 ± 2.6 µM; CC50 at 44 h [1]: ≥ 25 µM
CN(C)c1ccn([C@@H]2O[C@@](CO)(N=[N+]=[N-])C(O)C2F)c(=O)n1 (stereo partly drawn) [Compound 5-21] |  |  | > 250 µM | EC50 (VSVG/HIV-luc (NL4-3)): 13 ± 6 µM; CC50 at 44 h [1]: ≥ 25 µM; IC50 (HBeAg): 15.5 µM
[N-]=[N+]=N[C@]1(CO)O[C@@H](n2ccc(NN3CCOCC3)nc2=O)C(F)C1O (stereo partly drawn) [Compound 5-22] | 14.2 ± 5.1% |  |  | 
COCCCNc1ccn([C@@H]2O[C@@](CO)(N=[N+]=[N-])C(O)C2F)c(=O)n1 (stereo partly drawn) [Compound 5-23] | 10.4 ± 3.5% |  |  | 
CCCCCNc1ccn([C@@H]2O[C@@](CO)(N=[N+]=[N-])C(O)C2F)c(=O)n1 (stereo partly drawn) [Compound 5-24] | 33.8 ± 1% |  |  | 
CCCCCCNc1ccn([C@@H]2O[C@@](CO)(N=[N+]=[N-])C(O)C2F)c(=O)n1 (stereo partly drawn) [Compound 5-25] | 35 ± 1.7% |  |  | 
CCCCCCCNc1ccn([C@@H]2O[C@@](CO)(N=[N+]=[N-])C(O)C2F)c(=O)n1 (stereo partly drawn) [Compound 5-26] | 33.9 ± 0.5% |  |  | 

SMILES | inhibition at 10 µM (VSVG/HIV-luc (NL4-3)) | IC50 (HBsAg) | CC50 at 72 h [2] | further results
CCCCCCCCNc1ccn([C@@H]2O[C@@](CO)(N=[N+]=[N-])C(O)C2F)c(=O)n1 (stereo partly drawn) [Compound 5-27] | 32.3 ± 3.2% |  |  | 
[N-]=[N+]=N[C@]1(CO)O[C@@H](n2ccc(N3CCSCC3)nc2=O)C(F)C1O (stereo partly drawn) [Compound 5-29] | 11.6 ± 0.5% |  |  | 
[N-]=[N+]=N[C@]1(CO)O[C@@H](n2ccc(NNC(N)=O)nc2=O)C(F)C1O (stereo partly drawn) [Compound 5-30] | 38.6 ± 5.7% |  |  | 
CNNc1ccn([C@@H]2O[C@@](CO)(N=[N+]=[N-])C(O)C2F)c(=O)n1 (stereo partly drawn) [Compound 5-31] | 22.8 ± 3.5% |  |  | 
[N-]=[N+]=N[C@]1(CO)O[C@@H](n2ccc(NCCCN)nc2=O)C(F)C1O (stereo partly drawn) [Compound 5-32] | 0.9 ± 0.8% |  |  | 
[N-]=[N+]=N[C@]1(CO)O[C@@H](n2ccc(NCC(O)CN)nc2=O)C(F)C1O (stereo partly drawn) [Compound 5-33] | 14.1 ± 2.2% |  |  | 
COC(=O)[C@@H]1CCCN1c1ccn([C@@H]2O[C@@](CO)(N=[N+]=[N-])C(O)C2F)c(=O)n1 (stereo partly drawn) [Compound 7L] | 5.1 ± 4.6% | 0.02 µM | 596 µM | 
COC(=O)[C@H](Nc1ccn([C@@H]2O[C@@](CO)(N=[N+]=[N-])C(O)C2F)c(=O)n1)C(C)C (stereo partly drawn) [Compound 8f] |  | 0.26 µM | > 250 µM | EC50 (VSVG/HIV-luc (NL4-3)): 4.7 ± 0.1 µM; CC50 at 44 h [1]: ≥ 25 µM
COC(=O)[C@H](CCSC)Nc1ccn([C@@H]2O[C@@](CO)(N=[N+]=[N-])C(O)C2F)c(=O)n1 (stereo partly drawn) [Compound 8g] |  | 19.6 µM | > 250 µM | EC50 (VSVG/HIV-luc (NL4-3)): 8.1 ± 5.5 µM; CC50 at 44 h [1]: ≥ 25 µM
COC(=O)[C@H](CO)Nc1ccn([C@@H]2O[C@@](CO)(N=[N+]=[N-])C(O)C2F)c(=O)n1 (stereo partly drawn) [Compound 8h] |  | 0.07 µM | > 250 µM | EC50 (VSVG/HIV-luc (NL4-3)): 6.2 ± 0.6 µM; CC50 at 44 h [1]: ≥ 25 µM
CC(Nc1ccn([C@@H]2O[C@@](CO)(N=[N+]=[N-])C(O)C2F)c(=O)n1)C(=O)O (stereo partly drawn) [Compound 8m] |  |  |  | EC50 (VSVG/HIV-luc (NL4-3)): 0.5 ± 0.3 µM; CC50 at 44 h [1]: ≥ 25 µM
[N-]=[N+]=N[C@]1(CO)O[C@@H](n2cc(-c3ccco3)c(=O)[nH]c2=O)C(F)C1O (stereo partly drawn) [Compound 10] | 15.1 ± 0.8% |  |  | 
[N-]=[N+]=N[C@]1(CO)O[C@@H](n2cc(-c3ccco3)c(N)nc2=O)C(F)C1O (stereo partly drawn) [Compound 12] | 15.8 ± 4.4% |  |  | 
[N-]=[N+]=N[C@]1(CO)O[C@@H](n2cc(C#CCCO)c(=O)[nH]c2=O)C(F)C1O (stereo partly drawn) [Compound 14] | 10 ± 5.9% |  |  | 
[N-]=[N+]=N[C@]1(CO)O[C@@H](n2cc(C#CCCO)c(N)nc2=O)C(F)C1O (stereo partly drawn) [Compound 15] | 27 ± 4.7% |  |  | 
[N-]=[N+]=N[C@]1(CO)O[C@@H](n2cc3cc(CCO)oc3nc2=O)C(F)C1O (stereo partly drawn) [Compound 16] | 9.9 ± 0.8% |  |  | 
[N-]=[N+]=N[C@]1(CO)O[C@@H](n2cc(C(=O)N3CCOCC3)c(=O)[nH]c2=O)C(F)C1O (stereo partly drawn) [Compound 22] | 0% | 2.14 µM | 644 µM | 
[N-]=[N+]=N[C@]1(CO)O[C@@H](n2cc(C(=O)N3CCCC3)c(=O)[nH]c2=O)C(F)C1O (stereo partly drawn) [Compound 25] | 16.8 ± 1.2% |  |  | 
[N-]=[N+]=N[C@]1(CO)O[C@@H](n2cc(C(=O)N3CCSCC3)c(=O)[nH]c2=O)C(F)C1O (stereo partly drawn) [Compound 27] | 4.8 ± 1.8% | < 0.1 µM | 585 µM | 
Cc1cn([C@H]2C[C@H](N=[N+]=[N-])[C@@H](CO)O2)c(=O)[nH]c1=O [Zidovudine, reference compound] |  |  |  | EC50 (VSVG/HIV-luc (NL4-3)): 0.084 ± 0.0026 µM
